Assay results reported in US20260159520A1, “HETEROBIFUNCTIONAL COMPOUNDS AND METHODS OF TREATING DISEASE” (Halda Therapeutics OpCo, Inc., priority 2022, published 2026).
pKd: −log10 of the molar value.

Experiments:
CDK9 = target: T1, CDK9 (Homo sapiens, UniProt P50750); assay: KdELECT binding assay, CDK9; conditions: CDK9, Table 7
T1 construct: made in house; host or cells: E. coli BL21-derived host (T7 phage) or HEK-293 ('BEK-293' [sic])
Procedure: Compounds were tested using a KdELECT. Kinase-tagged T7 phage strains were prepared in an E. coli host derived from the BL21 strain. E. coli were grown to log-phase and infected with T7 phage and incubated with shaking at 32° C. until lysis. The lysates were centrifuged and filtered to remove cell debris. The remaining kinases were produced in BEK-293 cells and subsequently tagged with DNA for qPCR detection. Streptavidin-coated magnetic beads were treated with biotinylated small molecule ligands for 30 minutes at room temperature to generate affinity resins for kinase assays. The liganded beads were blocked with excess biotin and washed with blocking buffer (SeaBlock (Pierce), 1% BSA, 0.05% Tween 20, 1 mM DTT) to remove unbound ligand and to reduce non-specific binding. Binding reactions were assembled by combining kinases, liganded affinity beads, and test compounds in 1× binding buffer (20% SeaBlock, 0.17×PBS, 0.05% Tween 20, 6 mM DTT). Test compounds were prepared as 111× stocks in 100% DMSO. Kd values were determined using an 11-point 3-fold compound dilution series with three DMSO control points. All compounds for Kd measurements are distributed by acoustic transfer (non-contact dispensing) in 100% DMSO. The compounds were then diluted directly into the assays such that the final concentration of DMSO was 0.9%. All reactions performed in polypropylene 384-well plate. Each was a final volume of 0.02 mL. The assay plates were incubated at room temperature with shaking for 1 hour and the affinity beads were washed with wash buffer (lx PBS, 0.05% Tween 20). The beads were then re-suspended in elution buffer (lx PBS, 0.05% Tween 20, 0.5 μM nonbiotinylated affinity ligand) and incubated at room temperature with shaking for 30 minutes. The kinase concentration in the eluates was measured by qPCR.

[1] = system: T-Rex 293 cell line SC3 cells lacking increased expression of androgen receptor protein; assay: Cellular growth inhibition, T-Rex 293 SC3 cells without doxycycline; format: cell-based; conditions: not exposed to doxycycline, 72 hours, CellTiter-Glo 2.0
Procedure, shortened: (§1)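 Growth inhibition is measured in an inducible AR-expressing T-Rex 293 clone, SC3, cultured with or without 10 ng/mL doxycycline in hormone-depleted medium. Test compounds are applied for 72 hours. GI50 values derive from CellTiter-Glo 2.0 signal fitted by four-parameter regression.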

T47D cells = assay: Cellular growth inhibition assay for T47D cells; format: cell-based; conditions: Homo sapiens, 72 hours, CellTiter-Glo 2.0
Procedure: T47D cells were purchased from American Type Cell Culture (ATCC Cat #HTB-133) and then seeded on poly-D-lysine coated, black clear-bottom 384-well plates at 3000/well in 25 μL Dulbecco's Modified Eagle Medium (DMEM) supplemented with 10% w/w Fetal bovine serum (FBS), 0.2 units/mL recombinant human insulin (Gibco Cat #12585014), and 1% w/w Pen-Strep. Pen-Strep is a commercially available mixture of penicillin G and streptomycin, which is used in mammalian cell culture media to prevent bacterial contamination. Dulbecco's Modified Eagle Medium (DMEM) supplemented with 10% w/w fetal bovine serum (FBS), 0.2 units/mL recombinant human insulin, and 1% w/w Pen-Strep is herein referred to as Treatment Medium. Following seeding of cells in the plates, the plates were spun at 300×g for 30 seconds, then equilibrated to room temperature for 30 minutes, and then deposited in a humidified tissue culture incubator maintained at 37° C. with 5% CO2.
At 24 hours after seeding of the cells, dilutions of test compound were prepared in DMSO and dissolved in Treatment Medium, to achieve a final DMSO concentration of 0.5% w/w, thereby providing the Test Compound Solution. A 25 μL aliquot of the Test Compound Solution was added to cells in the well plates. An equal volume of a solution containing DMSO and Treatment Medium was used as a negative control. Following treatment of cells with Test Compound Solution or said equal volume of a solution containing DMSO and Treatment Medium, the plates were spun at 300×g for 30 seconds, and then left in an incubator for 72 hours.
At the end of the treatment duration, cell viability was quantified with CellTiter-Glo 2.0 reagent (Promega Cat #G9243). For this purpose, plates were equilibrated to room temperature for 30 minutes, and then 25 μL of CellTiter-Glo 2.0 reagent was added to cells in the plate wells. Plates were then agitated on a shaker for two minutes at 500 rpm and subsequently incubated at room temperature for 10 minutes. Following incubation, the plates were spun at 3000×g for 30 seconds, then sealed with an optical adhesive cover, and luminescence readings were measured with an EnVision Plate Reader (Perkin Elmer).
Data was normalized using zero luminescence for baseline. A four-parameter non-linear regression curve fit was applied to dose-response data in GraphPad Prism data analysis software to determine the half-maximal growth inhibitory concentration (GI50) for each test compound.

[2] = system: T-Rex 293 cell line SC3 cells having increased expression of androgen receptor protein; assay: Cellular growth inhibition, T-Rex 293 SC3 cells with doxycycline (increased androgen receptor expression); format: cell-based; conditions: with 10 ng/mL doxycycline (increased androgen receptor), 72 hours, CellTiter-Glo 2.0
Procedure, shortened: as §1

VCaP cells = assay: Cellular growth inhibition assay for VCaP cells; format: cell-based; conditions: Homo sapiens, 72 hours, CellTiter-Glo 2.0

T1 sequence (P50750 whole entry): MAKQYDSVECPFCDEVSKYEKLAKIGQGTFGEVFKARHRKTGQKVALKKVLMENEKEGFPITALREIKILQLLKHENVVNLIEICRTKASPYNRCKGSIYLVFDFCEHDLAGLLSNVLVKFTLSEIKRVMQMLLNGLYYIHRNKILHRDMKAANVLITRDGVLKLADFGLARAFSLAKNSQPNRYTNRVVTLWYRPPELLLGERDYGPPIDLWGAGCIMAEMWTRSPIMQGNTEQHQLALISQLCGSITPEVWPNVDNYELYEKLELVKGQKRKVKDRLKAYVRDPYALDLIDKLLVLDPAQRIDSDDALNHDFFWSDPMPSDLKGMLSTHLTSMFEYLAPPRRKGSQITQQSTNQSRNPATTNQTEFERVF

SMILES | pKd (CDK9) | GI50 [1] [nM] | GI50 (T47D cells) [nM] | GI50 [2] [nM] | GI50 (VCaP cells) [nM]
CN(CCCN1CCN(CCCNS(=O)(=O)c2ccc(Nc3ncc(Br)c(Nc4cccc(F)c4C(N)=O)n3)cc2)CC1)c1ncc(C(=O)N[C@H]2C(C)(C)[C@H](Oc3ccc(C#N)c(Cl)c3)C2(C)C)cn1 [Compound I-22, 2-((3-(4-(3-((4-((5-bromo-4-((2-carbamoyl-3-fluorophenyl)amino)pyrimidin-2-yl)amino)phenyl)sulfonamido)propyl)piperazin-1-yl)propyl) (methyl)amino)-N-((1r,3r)-3-(3-chloro-4-cyanophenoxy)-2,2,4,4-tetramethylcyclobutyl) pyrimidine-5-carboxamide] | 5.60 to 6.30 | > 3500 | < 500 | 1000 to 3500 | 
CCc1cnn2c(NCc3ccc(N(C)CC4CCN(CC5CCN(c6ncc(C(=O)N[C@H]7C(C)(C)[C@H](Oc8ccc(C#N)c(Cl)c8)C7(C)C)cn6)CC5)CC4)nc3)cc(N3CCCC[C@H]3CCO)nc12 [Compound I-59, N-((1r,3r)-3-(3-chloro-4-cyanophenoxy)-2,2,4,4-tetramethylcyclobutyl)-2-(4-((4-(((5-(((3-ethyl-5-((S)-2-(2-hydroxyethyl)piperidin-1-yl)pyrazolo[1,5-a]pyrimidin-7-yl)amino)methyl)pyridin-2-yl)(methyl)amino)methyl)piperidin-1-yl)methyl)piperidin-1-yl)pyrimidine-5-carboxamide] | > 7.30 | 100 to 1000 | < 500 | < 100 | 100 to 1000
COc1cc(F)ccc1-c1ccnc2[nH]c(C3CCN(CCOCCOC4CCN(c5ncc(C(=O)N[C@H]6C(C)(C)[C@H](Oc7ccc(C#N)c(Cl)c7)C6(C)C)cn5)CC4)CC3)cc12 [Compound I-69] | > 7.30 | 100 to 1000 | 1500 to 3000 | 100 to 1000 | 100 to 1000
COc1cc(F)ccc1-c1ccnc2[nH]c(C3CCN(CCOCCOCCOCCOC4CCN(c5ncc(C(=O)N[C@H]6C(C)(C)[C@H](Oc7ccc(C#N)c(Cl)c7)C6(C)C)cn5)CC4)CC3)cc12 [Compound I-70] | 6.30 to 7.30 | 1000 to 3500 | 1500 to 3000 | 1000 to 3500 | 100 to 1000
CC(C)n1cc(-c2ccnc3[nH]c(C4CCN(CCOCCOC5CCN(c6ncc(C(=O)N[C@H]7C(C)(C)[C@H](Oc8ccc(C#N)c(Cl)c8)C7(C)C)cn6)CC5)CC4)cc23)ccc1=O [Compound I-76] | > 7.30 | 100 to 1000 | < 500 | 100 to 1000 | < 100
CC(C)n1cc(-c2ccnc3[nH]c(C4CCN(CCOCCOCCOCCOC5CCN(c6ncc(C(=O)N[C@H]7C(C)(C)[C@H](Oc8ccc(C#N)c(Cl)c8)C7(C)C)cn6)CC5)CC4)cc23)ccc1=O [Compound I-78] | > 7.30 | 100 to 1000 | 500 to 1500 | < 100 | < 100
CC1(C)[C@H](NC(=O)c2cnc(N3CCC(OCCN4C/C=C/CCOc5cccc(c5)-c5ccnc(n5)Nc5cccc(c5)C4)CC3)nc2)C(C)(C)[C@H]1Oc1ccc(C#N)c(Cl)c1 [Compound I-87, N-[3-(3-chloro-4-cyano-phenoxy)-2,2,4,4-tetramethyl-cyclobutyl]-2-[4-[2-[(16E)-20-oxa-5,7,14,27-tetrazatetracyclo [19.3.1.12,6.18,12]heptacosa-1(24),2(27),3,5,8(26),9,11,16, 21(25),22-decaen-14-yl]ethoxy]-1-piperidyl]pyrimidine-5-carboxamide] | 5.60 to 6.30 | > 3500 | 500 to 1500 | 100 to 1000 | > 3500
CC1(C)[C@H](NC(=O)c2cnc(N3CCC(OCCOCCOCCOCCN4C/C=C/CCOc5cccc(c5)-c5ccnc(n5)Nc5cccc(c5)C4)CC3)nc2)C(C)(C)[C@H]1Oc1ccc(C#N)c(Cl)c1 [Compound I-90] | 5.60 to 6.30 | > 3500 | < 500 | 100 to 1000 | 100 to 1000
